Experimental findings from PubChem BioAssay (NCI) are described below.

Where “and” joins values, the source holds several entries; their conditions need not be identical. Equal values may be shown once.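 Compound exposure: 48 hours, 5 concentrations, 96-well plates. Here, GI50 denotes the concentration required for 50% inhibition of growth. The concentration for full growth arrest is given as TGI.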 Where a SMILES comes first, the peptide text is derived from it. Bridges are numbered along the chain shown (N, C = ends).

Common to all, as to experiment: NCI tumour cell line growth inhibition, 48 h
Assay [1] deals with U251 CNS.
Assay [2] deals with SR leukemia.
Assay [3] has as its system SK-MEL-2 melanoma.
For assay [4], the system named is HCC-2998 colon.
For assay [5], the system named is MDA-N.
The test system of assay [6] is SW-620 colon.
For assay [7], the system named is K-562 leukemia.
The subject of assay [8] is KM12 colon.
Assay [9] deals with SK-MEL-5 melanoma.
Assay [10] concerns SF-539 CNS.

In the case of `Cc1cc(NS(=O)(=O)c2ccc(Nc3c4ccccc4nc4c(C(=O)NC(CO)(CO)CO)cccc34)cc2)no1`, the TGI in assay [1] is above 100 µM; in [2], 91.4 µM; in assay [3] it was 48.5 µM; in [4], 55.7 µM; in [5] it was above 100 µM; in [6], above 100 µM. The results for the TGI in [7], in [8] and in assay [9] were above 100 µM, 71.4 µM and above 100 µM, respectively.

In the case of `COc1ccc(-c2nc(-c3cnccn3)n(C/C=C/c3ccccc3)n2)cc1`, the TGI in assay [1], in assay [2], in assay [4], in assay [5], in assay [6] and in [7] was above 100 µM throughout. The TGI in [8], in assay [9] and in assay [10] was above 100 µM each time.

Regarding `COc1ccc(Cn2c(=O)c(OS(=O)(=O)C(F)(F)F)c(C)c3cc4ccccc4cc32)cc1`, the TGI in assay [1], in assay [2], in assay [3], in assay [4], in [5] and in assay [6] was above 100 µM each time. In addition, the TGI in [7], in assay [8], in [9] and in [10] was above 100 µM throughout.

As to `O=S1(=O)N=C(SCc2c[nH]c3ccccc23)N(c2ccccc2)c2ccncc21`, the TGI in assay [1], in assay [2], in assay [3], in [4], in [5] and in [6] was above 100 µM each time. The TGI was above 100 µM in assay [7], above 100 µM in [8], above 100 µM in assay [9] and 80.5 µM in assay [10].

As for `CC(=O)N1CCOC12N=NC(C)(C)O2` (configuration not stated), the TGI in assay [1], in assay [2], in assay [3], in [4], in assay [5] and in assay [6] was above 100 µM each time. In addition, the TGI in [7], in assay [8], in assay [9] and in [10] was above 100 µM throughout.

Regarding `C[C@@H]([C@H]1CC[C@@]2(C)[C@@H]3CC[C@@H]4C(=CC3=CC[C@]12C)CC[C@H](N(C)C)C4(C)C)N(C)C`, the TGI in [1], in assay [2], in assay [4], in assay [5], in assay [6] and in [7] was above 100 µM throughout. For the same compound, the TGI in [8], in assay [9] and in assay [10] was above 100 µM throughout.

On to `Cc1cc(C)c(S(=O)(=O)N(CCCCCN)OCCCN)c(C)c1`, for which the TGI in assay [1] was determined as 35.4 µM; in [2] it was 43.9 µM; in [3], 35.1 µM; in assay [4], 20 µM; in [5], 31.4 µM; in assay [6] it was 36.3 µM. Further, the TGI in assay [7] turned out to be 60.8 µM; in [8], 34.8 µM; in assay [9], 35.5 µM; in [10], 27 µM.

For `Nc1ccnc2c1ncn2[C@H]1C[C@H](O)[C@@H](CO)O1`, the TGI in assay [1], in [2], in assay [3], in assay [4], in [5] and in [6] was above 100 µM throughout. Also, the TGI in assay [8], in assay [9] and in [10] was above 100 µM throughout.

Regarding `COC(=O)C1CCC(=O)NCCCCC(NC(=O)C(N)CC(=O)O)C(=O)N1` (stereo not drawn) (H-Asp-Lys-Glu-OMe; lactam 2-3; configuration not given here), the TGI in assay [1], in assay [2], in [3], in assay [4], in [5] and in assay [6] was above 100 µM throughout. For the same compound, the TGI in assay [7], in assay [8], in assay [9] and in assay [10] was above 100 µM throughout.

Turning to `CCOC(=O)C1=C(N2CCCC2)C(=O)C(C(=O)OCC)C1` (configuration not stated), the TGI in [1], in assay [3], in [4], in assay [5], in assay [6] and in assay [7] was above 100 µM throughout. Further, the TGI in [8], in [9] and in assay [10] was above 100 µM each time.

Regarding `CCOC(=O)/C=C(/C(=O)OCC)n1cc(C)c(=O)n(Cc2cn(CCCCOC(C)=O)nn2)c1=O`, the TGI in assay [1] is 45.3 µM; in assay [2], 62.4 µM; in assay [3], 45.1 µM; in assay [4], 36.6 µM; in [5] it was above 100 µM; in assay [6], above 100 µM. The TGI was above 100 µM in assay [7], 29.5 µM in assay [8], above 100 µM in assay [9] and 19.1 µM in assay [10].

For `CCN(CC)CC[n+]1ccc2c(C)c3[nH]c4ccccc4c3c(C)c2c1`, the GI50 in assay [1] is 0.25 µM; in assay [3] it was 1.4 µM; in [6], 0.654 µM; in [7] it was 0.1 µM; in assay [9] it was 0.239 µM; in assay [10], 0.921 µM. Also, the TGI in [1] was 1.3 µM and 5.1 µM and 1.63 µM; in [2] it was 3.01 µM; in [3], 1.56 µM and 3.43 µM and 1.29 µM; in [4], 1.52 µM and 1.43 µM and 1.97 µM; in assay [5], 1.99 µM; in assay [6], 5.65 µM and 13.2 µM and 6.96 µM. Moreover, the TGI in assay [7] was 5.43 µM and 3.49 µM and 2.19 µM; in assay [8] it was 2.39 µM and 1.45 µM and 2.76 µM; in assay [9], 1.57 µM and 1.28 µM and 2.45 µM; in [10], 1.66 µM and 5.78 µM and 2.12 µM.

`O=C(NNC(=O)c1ccc(Cl)cc1NC(=O)C12CC3CC(CC(C3)C1)C2)c1ccc(Cl)cc1`: the TGI was 45.4 µM in [1]; 63.8 µM in assay [2]; 33.4 µM in assay [4]; 55.9 µM in assay [5]; above 100 µM in assay [6]; above 100 µM in assay [7]. The TGI stood at 54.4 µM in assay [8], 36.5 µM in assay [9] and 46.6 µM in assay [10].

`CSCCC(NC(=O)C(Cc1c[nH]c2ccccc12)NC(=O)CCNC(=O)OC(C)(C)C)C(=O)NC(CC(=O)O)C(=O)NC(Cc1ccccc1)C(N)=O` (configuration not stated): the TGI in assay [1], in assay [3], in assay [4], in [5], in [6] and in assay [7] was above 50 µM throughout. Also, the TGI in assay [8], in assay [9] and in assay [10] was above 50 µM each time.

With `C[C@H](NC(=O)C(C)(Cc1ccc(O)cn1)NC(=O)c1ccccc1)c1ccccc1` (some centres not stated), the TGI in assay [1], in [3], in assay [4], in [5], in assay [6] and in assay [7] was above 100 µM throughout. Moreover, the TGI in assay [8], in assay [9] and in assay [10] was above 100 µM throughout.

As to `CC(C)=CCNc1ncnc2c1ncn2CCC(=O)O`, the TGI in [1], in [2], in assay [4], in assay [5], in [6] and in assay [7] was above 100 µM in each case. Also, the TGI in [8], in [9] and in assay [10] was above 100 µM each time.

`COc1ccc(-c2csc3c2[N+]2(C)C=CC=C2C3N2CCCC2)cc1` (configuration not stated): the TGI in assay [1] was 23.3 µM; in assay [2], 35.4 µM; in assay [3], 31.1 µM; in assay [5] it was above 100 µM; in assay [6], above 100 µM; in assay [7], above 100 µM. Besides, the TGI was determined as 34.9 µM in [8], 28.8 µM in assay [9] and 57.7 µM in assay [10].

`O=C(CCC(NC(=O)OCc1ccccc1)C(=O)OCc1ccccc1)Nc1cccc(OCc2ccccc2)c1` (configuration not stated): the TGI in assay [1] was above 100 µM; in [2] it was 65.5 µM; in assay [4], above 100 µM; in assay [5], above 100 µM; in assay [6], above 100 µM; in [7] it was 52.2 µM. Moreover, the figures for the TGI in assay [8] and in assay [10] were above 100 µM and 35 µM, respectively.

For `O=C(NNC(=O)c1ccncc1)C(=O)Nc1cc(Cl)c(Cl)cc1Cl`, the TGI in assay [1] was above 100 µM; in [3], above 100 µM; in assay [4], 57.8 µM; in assay [5], above 100 µM; in assay [6], above 100 µM; in [7] it was above 100 µM. In addition, the TGI in assay [8], in assay [9] and in assay [10] was above 100 µM each time.

Turning to `C=CCN1C(=O)C[C@H](Cc2ccccc2)NC(=O)C[C@H](Cc2ccccc2)N(CC=C)C(=O)C[C@H](Cc2ccccc2)NC(=O)C[C@@H]1Cc1ccccc1`, the TGI in [1], in assay [2], in assay [3], in assay [5], in assay [6] and in assay [7] was above 100 µM throughout. Besides, the TGI in assay [8], in assay [9] and in assay [10] was above 100 µM each time.

Turning to `C=CC(C)(C)/C(=C\CO[Si](C(C)C)(C(C)C)C(C)C)C(=O)N(C)c1ccccc1I`, the TGI is 25 µM in assay [1]; 27.7 µM in [2]; 26 µM in assay [4]; 33.6 µM in assay [5]; 26.1 µM in [6]; above 100 µM in [8]. Also, the TGI was 32.1 µM in [9] and 33 µM in assay [10].

In the case of `C#CC(O)/C=C/C(O)CCCC(O)CC#CC(O)C#CCCCCC(O)/C=C/CCCC(=O)CCCCCCCCCCCCCCCC(O)C(O)C#CC(=O)O` (configuration not stated), the TGI in assay [1], in assay [2], in [3], in [4], in assay [5] and in assay [7] was above 25 µM throughout. Further, the TGI in assay [8] and in assay [9] was above 25 µM each time.

Turning to `CC(C)=CC(=O)OC1C2C(C)=CC(=O)C(O)C2(C)C2C3(O)OCC24C(CC(=O)OC14)C(C)C3O` (configuration not stated), the GI50 in assay [1] was 0.02 µM; in assay [3] it was 0.025 µM; in [4] it was 0.0229 µM; in assay [6], 0.0108 µM and 0.0265 µM; in [7], 0.02 µM; in assay [8], 0.0209 µM. The GI50 in assay [9] and in assay [10] was 0.02 µM throughout. Besides, the TGI is 0.0192 µM and 0.0314 µM in assay [1]; 0.0723 µM and 0.0279 µM and 0.0695 µM in assay [3]; 0.0532 µM and 0.0278 µM and 0.0513 µM in [4]; 0.00481 µM in assay [5]; 0.0775 µM and 0.237 µM in assay [7]; 0.01 µM and 0.0209 µM in assay [9]. In addition, the TGI in assay [10] is 0.0132 µM and 0.0415 µM.

For `CC1(C)Cc2ccccc2C(C)(Cl)C(=O)N1` (configuration not stated), the TGI in [1], in assay [2], in assay [4], in assay [5], in [6] and in assay [7] was above 10 µM in each case. For the same compound, the TGI in assay [8] and in [10] was above 10 µM each time.

Consider `COc1c(NC(C)=O)c2ccccc2c2ccccc12`, for which the TGI in assay [1], in assay [2], in assay [3], in assay [5], in [6] and in assay [7] was above 100 µM each time. Further, the TGI in assay [8] and in [9] was above 100 µM throughout.

Take `COc1ccc(/C=C/C(=O)c2cc(CN(C)C)c(O)c(CN(C)C)c2)cc1`: the TGI in assay [1] was above 100 µM; in [2] it was above 100 µM; in assay [5], 67.1 µM; in assay [6] it was above 100 µM; in assay [7] it was 70.7 µM; in assay [8], 37.4 µM. Also, the TGI in assay [9] is 32.4 µM; in [10], above 100 µM.
